According to US20250051263A1, “NOVEL IONIZABLE LIPIDS AND LIPID NANOPARTICLES AND METHODS OF USING THE SAME” (Sail Biomedicines, Inc., priority 2021, published 2025):
Values joined by “and” are separate entries in the source; they are usually repeats but may differ in a detail not shown here. Identical values can stand only once.

Experiments:
[1] = mRNA encapsulation efficiency, Quant-iT RiboGreen RNA Assay; assay type: physicochemical; conditions: LNP ionizable lipid:DSPC:Plant Chol.:DMPE-PEG2k 50:10:38.5:1.5
[2] = as above; assay type: physicochemical
Excerpt: (§1) All other compositions (i.e., compositions of MC3 (a commercially available ionizable lipid having a chemical name of (6Z,9Z,28Z,31Z)-heptatriacont-6,9,28,31-tetraene-19-yl 4-(dimethylamino)butanoate, and compositions of novel ionizable lipids 7669, 7671, 7668, 767, 7650) are composed of ionizable lipid:structural lipid:sterol:PEG-lipid (SDA lipid #:DSPC:cholesterol:14:0 PEG2000 PE) at a molar ratio of […], respectively. Lipids are solubilized in ethanol. Compositions are then handled as above, except the formulations are maintained at ionizable lipid to mRNA N:P ratio of 6:1. The lipid mix and mRNA solution are mixed at a 1:3 ratio by volume, respectively, on a NanoAssemblr Ignite (Precision Nanosystems) at a total flow rate of 9 mL/min. Resulting compositions are then loaded into Slide-A-Lyzer G2 dialysis cassettes (10 k MWCO) and dialyzed in 200 times sample volume of 1×PBS for 4 hrs at room temp with gentle stirring. The PBS is refreshed, and the compositions are further dialyzed for at least 14 hrs at 4° C. with gentle stirring. The dialyzed compositions are then collected and concentrated by centrifugation at 2000×g using Amicon Ultra centrifugation filters (100 k MWCO). Concentrated particles are characterized for size, polydispersity, and particle concentration using Zetasizer Ultra (Malvern Panalytical) and for mRNA encapsulation efficiency using Quant-iT RiboGreen RNA Assay Kit (ThermoFisher Scientific).
(§2) The lipid mix and mRNA solution were mixed at a 1:3 ratio by volume, respectively, on the NanoAssemblr Ignite (Precision Nanosystems) at a total flow rate of 9 mL/min. Resulting formulations were then loaded into Slide-A-Lyzer G2 dialysis cassettes (10 k MWCO) and dialyzed in 200 times sample volume of 1×PBS for 2 hrs at room temperature. The PBS was refreshed, and the formulations were further dialyzed for at least 14 hrs at 4° C. with gentle stirring. The dialyzed formulations were then collected and concentrated by centrifugation at 3000×g using Amicon Ultra centrifugation filters (100 k MWCO). The concentrated formulations were characterized for size, polydispersity, and particle concentration using Zetasizer Ultra (Malvern Panalytical) and for mRNA encapsulation efficiency using Quant-iT RiboGreen RNA Assay Kit (ThermoFisher Scientific).
(§3) For each LNP composition, the lipid mix and mRNA solution were mixed at a 1:3 ratio by volume, respectively, on a NanoAssemblr Ignite (Precision Nanosystems) at a total flow rate of 9 mL/min. The resulting compositions were then loaded into Slide-A-Lyzer G2 dialysis cassettes (10 k MWCO) and dialyzed in 200 times sample volume of 1×PBS for 2 hours at room temperature with gentle stirring. The PBS was refreshed, and the compositions were further dialyzed for at least 14 hours at 4° C. with gentle stirring. The dialyzed compositions were then collected and concentrated by centrifugation at 3000×g using Amicon Ultra centrifugation filters (100 k MWCO). The concentrated particles were characterized for size, polydispersity, and particle concentration using Zetasizer Ultra (Malvern Panalytical) and for mRNA encapsulation efficiency using Quant-iT RiboGreen RNA Assay Kit (ThermoFisher Scientific).

Balb/c mice = test: EPO levels in plasma by EPO MSD kit after IV injection of EPO mRNA LNP; assay type: in vivo
Method: 8-9 week old female Balb/c mice are utilized for bioluminescence-based ionizable lipid screening efforts. Mice are obtained from Jackson Laboratories (JAX Stock: 000651) and allowed to acclimate for one week prior to manipulations. Animals are placed under a heat lamp for a few minutes before introducing them to a restraining chamber. The tail is wiped with alcohol pads (Fisher Scientific) and 100 μL of a lipid nanoparticle composition descrbed above containing 10 ug total mRNA (5 ug Fluc+5 ug EPO) is injected intravenously using a 29 G insulin syringe (Covidien). Any resulting bleeding is stemmed using a sterile gauze pad (Fisher Scientific) and animals are placed back into their home cage. 4-6 hours post-dose, animals are injected with 200 μL of 15 mg/mL D-Luciferin (GoldBio) and placed in an isoflurane induction chamber set to deliver 2.5% isoflurane delivered at an oxygen flow rate of 1-2 liters per min. After 5 minutes of isoflurane exposure, mice are placed in set nose cones inside the IVIS Lumina LT imager (PerkinElmer). LivingImage software is utilized for imaging. Whole body bio-luminescence is captured at auto-exposure after which animals are removed from the IVIS and placed into a CO2 chamber for euthanasia. Cardiac puncture is performed on each animal after placing it in dorsal recumbency, and blood collection is performed using a 25 G insulin syringe (BD). Blood is collected in Lithium-Heparin coated tubes (Fisher Scientific) and immediately placed on ice. Once all blood samples are collected, tubes are spun at 2000 G for 10 minutes using a tabletop centrifuge and plasma is aliquoted into individual Eppendorf tubes (Fisher Scientific) and stored at −80 C for subsequent EPO quantification. EPO levels in plasma are determined using EPO MSD kit (Meso Scale Diagnostics).
8-9 week old female Balb/c mice were utilized for bioluminescence-based ionizable lipid screening efforts. Mice were obtained from Jackson Laboratories (JAX Stock: 000651) and allowed to acclimate for one week prior to manipulations. Animals were placed under a heat lamp for a few minutes before introducing them to a restraining chamber. The tail was wiped with alcohol pads (Fisher Scientific) and, for each LNP composition descrbed above, 100 μL of a lipid nanoparticle composition descrbed above containing 10 μg total mRNA (5 μg Fluc+5 μg EPO, 5 μg Fluc+5 μg Cre, or 5 μg EGFP) was injected intravenously using a 29 G insulin syringe (Covidien).
4-6 hours post-dose, animals were injected with 200 μL of 15 mg/mL D-Luciferin (GoldBio), and placed in set nose cones inside the IVIS Lumina LT imager (PerkinElmer). LivingImage software was utilized for imaging. Whole body bio-luminescence was captured at auto-exposure after which animals are removed from the IVIS and placed into a CO2 chamber for euthanasia. Cardiac puncture was performed on each animal after placing it in dorsal recumbency, and blood collection was performed using a 25 G insulin syringe (BD). Once all blood samples were collected, tubes are spun at 2000 G for 10 minutes using a tabletop centrifuge and plasma was aliquoted into individual Eppendorf tubes (Fisher Scientific) and stored at −80° C. for subsequent EPO quantification. EPO levels in plasma were determined using EPO MSD kit (Meso Scale Diagnostics).

[3] = LNP size and polydispersity, Zetasizer Ultra; assay type: physicochemical
Excerpt: as §1, §2, §3

[4] = Example 5 LNP lipid:DOPE:Plant Cholesterol:DMPE-PEG2k 35:16:46.5:2.5, FLUC/EPO 1:1 mRNA, N:P 6:1
[5] = LNP ionizable lipid:DOPE:Plant Chol.:DMPE-PEG2k 35:16:46.5:2.5 (Table 1)
[6] = Example 5 LNP (DOPE 35:16:46.5:2.5), 5 μg FLUC + 5 μg EPO
[7] = LNP lipid:DSPC:Plant Chol.:DMPE-PEG2k 50:10:38.5:1.5, 5 ug Fluc+5 ug EPO mRNA
[8] = LNP ionizable lipid:DSPC:Plant Chol.:DMPE-PEG2k 50:10:38.5:1.5

| SMILES | % EE [1] | % EE [2, 4] | % EE [2, 5] | hEPO (Balb/c mice; [6]) | hEPO (Balb/c mice; [7]) | PDI [3, 4] | Size (nm) [3, 4] | PDI [3, 5] | Size (nm) [3, 5] | PDI [3, 8] | Size (nm) [3, 8] |
| --- | --- | --- | --- | --- | --- | --- | --- | --- | --- | --- | --- |
| CCCCCCCCCCCOC(=O)CCCCCN(CCCCCCCC(=O)OC(CCCCCCCC)CCCCCCCC)CCOC(=O)OCCN(CCCCCCCC(=O)OC(CCCCCCCC)CCCCCCCC)CCCCCC(=O)OCCCCCCCCCCC [Compound 2218, 1-octylnonyl 8-[2-[2-[[8-(1-octylnonoxy)-8-oxo-octyl]-(6-oxo-6-undecoxy-hexyl)amino]ethoxycarbonyloxy]ethyl-(6-oxo-6-undecoxy-hexyl)amino]octanoate] | 86.5% | 91.7% | 94.4% and 91.7% | 9.6E+01 | 8.40E+01 | 0.09 | 70.0 nm | 0.17 and 0.09 | 71.28 nm and 70.00 nm | 0.05 | 96.55 nm |
| CCCCCCCCCCCOC(=O)CCCCCN(CCCCCCCC(=O)OC(CCCCCCCC)CCCCCCCC)CCNC(=O)CC(=O)NCCN(CCCCCCCC(=O)OC(CCCCCCCC)CCCCCCCC)CCCCCC(=O)OCCCCCCCCCCC [Compound 2220, 1-octylnonyl 8-[2-[[3-[2-[[8-(1-octylnonoxy)-8-oxo-octyl]-(6-oxo-6-undecoxy-hexyl)amino]ethylamino]-3-oxo-propanoyl]amino]ethyl-(6-oxo-6-undecoxy-hexyl)amino]octanoate] | 91% | 94.4% |  | 7.1E+05 | 6.99E+05 | 0.17 | 71.3 nm |  |  | 0.03 | 89.17 nm |
| CCCCCCCCCCCOC(=O)CCCCCN(CCCCCCCC(=O)OC(CCCCCCCC)CCCCCCCC)CCNC(=O)NCCN(CCCCCCCC(=O)OC(CCCCCCCC)CCCCCCCC)CCCCCC(=O)OCCCCCCCCCCC [Compound 2246, 1-octylnonyl8-[2-[2-[[8-(1-octylnonoxy)-8-oxo-octyl]-(6-oxo-6-undecoxy-hexyl)amino]ethylcarbamoylamino]ethyl-(6-oxo-6-undecoxy-hexyl)amino]octanoate] |  | 94.9% |  | 3.6E+06 |  | 0.05 | 62.7 nm |  |  |  |  |
| CCCCCCCCCC(=O)OCCCCCCCN(CCCCCCCC(=O)OC(CCCCCCCC)CCCCCCCC)CCNC(=O)CCC(=O)NCCN(CCCCCCCOC(=O)CCCCCCCCC)CCCCCCCC(=O)OC(CCCCCCCC)CCCCCCCC [Compound 2272, 7-[2-[[4-[2-[7-decanoyloxyheptyl-[8-(1-octylnonoxy)-8-oxo-octyl]amino]ethylamino]-4-oxo-butanoyl]amino]ethyl-[8-(1-octylnonoxy)-8-oxo-octyl]amino]heptyl decanoate] |  | 92.6% |  | 1.8E+06 |  | 0.07 | 68.7 nm |  |  |  |  |
| CCCCCCCCCCCOC(=O)CCCCCN(CCCCCCCC(=O)OC(CCCCCCCC)CCCCCCCC)CCCNC(=O)CN(CC(=O)NCCCN(CCCCCCCC(=O)OC(CCCCCCCC)CCCCCCCC)CCCCCC(=O)OCCCCCCCCCCC)C(=O)CCN1CCCC1 [Compound 2353, 1-octylnonyl8-[3-[[2-[[2-[3-[[8-(1-octylnonoxy)-8-oxo-octyl]-(6-oxo-6-undecoxy-hexyl)amino]propylamino]-2-oxo-ethyl]-(3-pyrrolidin-1-ylpropanoyl)amino]acetyl]amino]propyl-(6-oxo-6-undecoxy-hexyl)amino]octanoate] |  | 97.0% |  | 9.7E+03 |  | 0.14 | 85.2 nm |  |  |  |  |
| CCCCCCCCCCCC(=O)OCCCCCN(CCCCCCCC(=O)OC(CCCCCCCC)CCCCCCCC)CCNC(=O)CCC(=O)NCCN(CCCCCCCC(=O)OC(CCCCCCCC)CCCCCCCC)CCCCCOC(=O)CCCCCCCCCCC [Compound 2354, 5-[2-[[4-[2-[5-dodecanoyloxypentyl-[8-(1-octylnonoxy)-8-oxo-octyl]amino]ethylamino]-4-oxo-butanoyl]amino]ethyl-[8-(1-octylnonoxy)-8-oxo-octyl]amino] pentyl dodecanoate] |  | 94.6% |  | 1.4E+06 |  | 0.10 | 69.2 nm |  |  |  |  |
| CCCCCCCCCCC(CC)OC(=O)CCCCCN(CCCCCCCC(=O)OC(CCCCCCCC)CCCCCCCC)CCNC(=O)CCC(=O)NCCN(CCCCCCCC(=O)OC(CCCCCCCC)CCCCCCCC)CCCCCC(=O)OC(CC)CCCCCCCCCC (stereo not shown) [Compound 2356, 1-octylnonyl 8-[[6-(1-ethylundecoxy)-6-oxo-hexyl]-[2-[[4-[2-[[6-(1-ethylundecoxy)-6-oxo-hexyl]-[8-(1-octylnonoxy)-8-oxo-octyl]amino]ethylamino]-4-oxo-butanoyl]amino]ethyl]amino]octanoate] |  | 95.0% |  | 1.3E+08 |  | 0.10 | 74.2 nm |  |  |  |  |
| CCCCCCCCCCCOC(=O)CCCCCN(CCCCCCCC(=O)OCCCC(CCCCC)CCCCC)CCN1CCN(CCN(CCCCCCCC(=O)OCCCC(CCCCC)CCCCC)CCCCCC(=O)OCCCCCCCCCCC)CC1 [Compound 2397, 4-pentylnonyl 8-[2-[4-[2-[[8-oxo-8-(4-pentylnonoxy)octyl]-(6-oxo-6-undecoxy-hexyl)amino]ethyl]piperazin-1-yl]ethyl-(6-oxo-6-undecoxy-hexyl)amino]octanoate] |  | 94.0% |  | 1.5E+06 |  | 0.09 | 114.0 nm |  |  |  |  |
